Patent US5486516A, “Furopyrimidine derivatives” (DowElanco, priority 1993, dated 1996)

Tests used:
[1] = test system: Pyricularia oryzae (rice blast); assay: whole plant or invertebrate; assay type: in vivo; conditions: foliar, read-out: RICE BLAST control rating
[2] = test system: Southern corn rootworm (Diabrotica undecimpuctata howardi Barber); assay: Mite/insect screen, corn rootworm; assay type: in vivo; conditions: Diabrotica, soil, read-out: CRW results (percent mortality); for mortality at 12 ppm: CRW rate 12.00 ppm; for mortality at 24 ppm: CRW rate 24.00 ppm
In short: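 Five 2-3 instar larvae per cup were placed on sandy soil (15 g, with presoaked corn seed) treated 6–12 h earlier with 1 mL test solution, an emulsified acetone/alcohol formulation diluted in water. Cups kept at 23° C; mortality and phytotoxicity assessed as percent after standard exposures.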

[3] = test system: southern armyworm (Spodopetra eridania Cramer); assay: Mite/insect screen, Southern armyworm; assay type: in vivo; conditions: Spodoptera eridania, sprayed leaves, read-out: SAW results (percent mortality); for mortality at 200 ppm: rate 200 ppm; for mortality at 400 ppm: rate 400 ppm
In short: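 Southern armyworm larvae placed in Petri dishes with two excised squash leaves that had been sprayed to runoff (10 psi) with emulsified compound and air-dried for 1 h. Mortality in percent recorded after a standard exposure period; formulation acetone/alcohol plus Toximul R and S, water-diluted.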

[4] = test system: Twospotted spider mites (Tetranychus urticae Koch); assay: Mite/insect screen, twospotted spider mites; assay type: in vivo; conditions: Tetranychus urticae, sprayed leaves, read-out: SM results (percent mortality); for mortality at 200 ppm: rate 200 ppm; for mortality at 400 ppm: rate 400 ppm
In short: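 Percent mortality, along with phytotoxicity, was read after standard exposure periods. Beforehand, mites established on both surfaces of squash cotyledons received a runoff spray (10 psi) of water-diluted compound formulated in acetone/alcohol with sulfonate/nonionic emulsifiers.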

[5] = test system: melon aphids (Aphis gossvpii Glover); assay: Mite/insect screen, melon aphids; assay type: in vivo; conditions: Aphis, sprayed leaves, read-out: MA results (percent mortality); for mortality at 200 ppm: rate 200 ppm; for mortality at 400 ppm: rate 400 ppm
In short: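 Percent mortality of melon aphids was assessed after standard exposure periods. Infested squash cotyledons had been sprayed on both leaf surfaces until runoff at 10 psi with water-diluted test solutions. Compounds were formulated in acetone/alcohol (50:50) containing emulsifiers.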

[6] = test system: Puccinia recondita tritici (leaf rust); assay: Plant pathology screen (Test 1), leaf rust on wheat; conditions: in Triticum aestivum, foliar, read-out: LEAF RUST control rating
[7] = test system: Pseudoperonospora cubensis (downy mildew); assay: Plant pathology screen (Test 1), downy mildew on squash; conditions: foliar, read-out: DOWN MDEW control rating
Procedure: (§1) The test compounds were formulated for application by dissolving 50 mg of the compound into 1.25 ml of solvent. The solvent was prepared by mixing 50 ml of "Tween 20" (polyoxyethylene (20) sorbitan monolaurate emulsifier) with 475 ml of acetone and 475 ml of ethanol. The solvent/compound solution was diluted to 125 ml with deionized water. The resulting formulation contains 400 ppm test chemical. Lower concentrations were obtained by serial dilution with the solvent-surfactant mixture.
(§2) The formulated test compounds were applied by foliar spray. The following plant pathogens and their corresponding plants were employed.
(§3) The formulated technical compounds were sprayed on all foliar surfaces of the host plants (or cut berry) to past run-off. Single pots of each host plant were placed on raised, revolving pedestals in a fume hood. Test solutions were sprayed on all foliar surfaces. All treatments were allowed to dry and the plants were inoculated with the appropriate pathogens within 2-4 hours.
(§4) The effectiveness of test compounds in controlling disease was rated using the following scale.

[8] = test system: Erysiphe graminis tritici (powdery mildew); assay: Plant pathology screen (Test 1), powdery mildew on wheat; conditions: Blumeria graminis, in Triticum aestivum, foliar, read-out: POWD MDEW control rating
[9] = test system: Botrytis cinerea (gray mold); assay: Plant pathology screen (Test 1), gray mold on grape berries; conditions: read-out: GRAY MOLD control rating
Procedure: This screen was used to evaluate the efficacy of the present compounds against a variety of different organisms that cause plant diseases.
as §1, §2, §3, §4

Structure (SMILES) | pest or weed control at 400 µg/mL [1] [%] | mortality at 12 ppm [2] [%] | mortality at 24 ppm [2] [%] | mortality at 200 ppm [3] [%] | mortality at 400 ppm [3] [%] | mortality at 200 ppm [4] [%] | mortality at 400 ppm [4] [%] | mortality at 200 ppm [5] [%] | mortality at 400 ppm [5] [%] | pest or weed control at 400 µg/mL [6] [%] | pest or weed control at 400 µg/mL [7] [%] | pest or weed control at 400 µg/mL [8] [%] | pest or weed control at 400 µg/mL [9] [%]
Cc1ccc(CCNc2ncnc3oc(C)c(C)c23)cc1 [Example 24, 5,6-dimethyl-N-[2-(4-methylphenyl)ethyl]furo[2,3-d]pyrimidin-4-amine] | 20 to 89 | 0 | 0 | 0 | 0 | 0 | 0 | 0 | 0 | 90 to 100 | 0 to 19 | 0 to 19 | 0 to 19
COc1ccc(CCNc2ncnc3oc(C)c(C)c23)cc1OC [Example 25, 5,6-dimethyl-N-[2-(3,4-dimethoxyphenyl)ethyl]furo[2,3-d]pyrimidin-4-amine] | 0 to 19 | 0 | 0 | 0 | 0 | 0 | 0 | 0 | 0 | 20 to 89 | 0 to 19 | 0 to 19 | 0 to 19
Cc1oc2ncnc(NCC(Cc3ccc(F)cc3)c3ccc(Cl)cc3)c2c1C (stereo not shown) [Example 26, N-[2-(4-chlorophenyl)-3-(4-fluorophenyl)propyl]-5,6-dimethylfuro[2,3-d]pyrimidin-4-amine] | 0 to 19 | 0 | 0 | 0 | 0 | 0 | 0 | 0 | 0 | 0 to 19 | 0 to 19 | 0 to 19 | 0 to 19
COc1ccc(CCNc2ncnc3occ(C)c23)cc1OC [Example 27, N-[2-(3,4-dimethoxyphenyl)ethyl]-5-methylfuro[2,3-d]pyrimidin-4-amine] | 0 to 19 | 0 | 0 | 0 | 0 | 0 | 0 | 0 | 0 | 90 to 100 | 90 to 100 | 0 to 19 | 0 to 19
COc1ccccc1Oc1ncnc2oc(C)c(C)c12 [Example 28, 5,6-dimethyl-4-(2-methoxyphenoxy)furo[2,3-d]pyrimidine] | 0 to 19 | 0 | 0 | 0 | 0 | 90 | 0 | 30 | 0 | 0 to 19 | 0 to 19 | 0 to 19 | 0 to 19
Cc1ccccc1Oc1ncnc2oc(C)c(C)c12 [Example 29, 5,6-dimethyl-4-(2-methylphenoxy)furo[2,3-d]pyrimidine] | 20 to 89 | 0 | 0 | 0 | 0 | 0 | 0 | 0 | 0 | 20 to 89 | 20 to 89 | 20 to 89 | 0 to 19
COc1ccc(CCNc2ncnc3oc4c(c23)CCCC4)cc1 [Example 30, N-[2-(4-methoxyphenyl)ethyl]-5,6,7,8-tetrahydrobenzofuro[2,3-d]pyrimidin-4-amine] | 0 to 19 | 0 | 0 | 0 | 90 | 0 | 0 | 0 | 0 | 20 to 89 | 20 to 89 | 0 to 19 | 0 to 19
Cc1cc2c(NCCc3ccc4ccccc4c3)ncnc2o1 [Example 31, 6-methyl-N-[2-(2-naphthalenyl)ethyl]furo[2,3-d]pyrimidine-4-amine] | 20 to 89 | 0 | 0 | 100 | 80 | 20 | 100 | 90 | 0 | 90 to 100 | 90 to 100 | 20 to 89 | 0 to 19
Cc1cc2c(OCCC34CC5CC(CC(C5)C3)C4)ncnc2o1 [Example 38, 6-methyl-4-[2-(1-adamantyl)ethoxy]furo[2,3-d]pyrimidine] | 0 to 19 | 0 | 0 | 0 | 0 | 0 | 0 | 0 | 0 | 0 to 19 | 0 to 19 | 0 to 19 | 0 to 19
Cc1cc2c(OCCc3ccc(OCc4ccccc4)cc3)ncnc2o1 [Example 39, 6-methyl-4-[2-[4-(phenylmethoxy)phenyl]ethoxy]furo[2,3-d]pyrimidine] | 0 to 19 | 0 | 0 | 0 | 0 | 0 | 0 | 0 | 10 | 90 to 100 | 0 to 19 | 0 to 19 | 0 to 19
COc1ccc(CCOc2ncnc3oc(C)cc23)cc1 [Example 40, 6-methyl-4-[2-(4-methoxyphenyl)ethoxy]furo[2,3-d]pyrimidine] | 0 to 19 | 0 | 0 | 0 | 0 | 0 | 20 | 0 | 80 | 90 to 100 | 90 to 100 | 20 to 89 | 0 to 19
Cc1oc2ncnc(OCCc3ccc(Oc4ccc(C(F)(F)F)cc4)cc3)c2c1C [Example 41, 5,6-dimethyl-4-[2-[4-[4-(trifluoromethyl)phenoxy]phenyl]ethoxy]furo[2,3-d]pyrimidine] | 20 to 89 | 0 | 60 | 0 | 0 | 0 | 100 | 0 | 100 | 90 to 100 | 90 to 100 | 90 to 100 | 0 to 19
Cc1cc2c(OCCc3ccc(C(F)(F)F)cc3)ncnc2o1 [Example 42, 6-methyl-4-[2-[4-(trifluoromethyl)phenyl]ethoxy]furo[2,3-d]pyrimidine] | 20 to 89 | 0 | 0 | 0 | 0 | 0 | 100 | 100 | 100 | 90 to 100 | 90 to 100 | 20 to 89 | 0 to 19
